Assay results as given in patent US20050164951A1, “Inhibitors for the soluble epoxide hydrolase” (The Regents of the University of California, priority 2003, published 2005).
Like-named read-outs stand apart in the source and are kept apart here.

How the values were obtained:
human sEH = target: T1, human sEH (Homo sapiens, UniProt P34913); assay: Inhibition of recombinant human sEH, IC50 assay with 4-nitrophenyl-trans-2,3-epoxy-3-phenylpropyl carbonate as substrate; assay type: biochemical
T1 construct: made in house; host or cells: baculovirus expression system
T1 sequence (P34913 1-555): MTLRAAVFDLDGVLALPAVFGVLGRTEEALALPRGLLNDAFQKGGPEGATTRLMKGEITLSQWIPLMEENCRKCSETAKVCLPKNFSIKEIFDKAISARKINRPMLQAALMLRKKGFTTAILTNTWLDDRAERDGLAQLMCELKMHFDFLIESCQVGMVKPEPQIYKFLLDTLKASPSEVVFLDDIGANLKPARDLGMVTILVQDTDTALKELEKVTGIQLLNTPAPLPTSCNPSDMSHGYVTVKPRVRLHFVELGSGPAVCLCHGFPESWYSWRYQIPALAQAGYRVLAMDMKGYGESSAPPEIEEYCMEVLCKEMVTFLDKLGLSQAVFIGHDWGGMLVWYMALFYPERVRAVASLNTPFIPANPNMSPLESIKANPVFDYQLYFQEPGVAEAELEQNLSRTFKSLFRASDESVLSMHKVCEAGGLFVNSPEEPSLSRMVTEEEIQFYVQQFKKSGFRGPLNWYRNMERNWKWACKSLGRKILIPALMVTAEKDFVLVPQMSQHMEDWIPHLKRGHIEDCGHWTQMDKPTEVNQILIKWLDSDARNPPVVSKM
Description: (§1) Assays were performed in triplicate. […] The curve was generated from at least three separate runs, each in triplicate, to obtain the standard deviation (SD) given in Table 1 thru Table 4.

mouse sEH = target: T2, mouse sEH (Mus musculus, UniProt P34914); assay: Inhibition of recombinant mouse sEH, IC50 assay with 4-nitrophenyl-trans-2,3-epoxy-3-phenylpropyl carbonate as substrate; assay type: biochemical; conditions: read-out: IC50 (μM) Mouse sEH
T2 construct: made in house; host or cells: baculovirus expression system
T2 sequence (P34914 1-554): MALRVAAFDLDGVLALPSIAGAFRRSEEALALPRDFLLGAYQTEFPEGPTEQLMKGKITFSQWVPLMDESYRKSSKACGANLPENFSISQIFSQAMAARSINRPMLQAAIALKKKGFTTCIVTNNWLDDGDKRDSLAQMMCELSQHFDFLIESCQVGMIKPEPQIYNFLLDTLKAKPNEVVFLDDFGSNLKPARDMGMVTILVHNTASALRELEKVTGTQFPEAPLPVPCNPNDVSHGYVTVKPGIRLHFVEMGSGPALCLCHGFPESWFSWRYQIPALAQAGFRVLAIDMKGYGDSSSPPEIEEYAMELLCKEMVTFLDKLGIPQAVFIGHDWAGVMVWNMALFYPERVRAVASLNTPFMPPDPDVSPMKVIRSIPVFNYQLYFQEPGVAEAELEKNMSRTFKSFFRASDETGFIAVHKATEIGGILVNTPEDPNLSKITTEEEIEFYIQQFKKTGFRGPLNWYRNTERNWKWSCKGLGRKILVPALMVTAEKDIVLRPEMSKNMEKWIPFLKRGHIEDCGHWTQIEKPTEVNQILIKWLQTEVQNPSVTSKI
Description: as §1

[1] = Tables 17a and b, read-out: IC50 (μM) Human sEH
[2] = Table 7, established protocols, read-out: IC50 (μM) Human sEH
[3] = Table 8, established protocols, read-out: IC50 (μM) Human sEH
[4] = Table 9, established protocols, read-out: IC50 (μM) Human sEH

Compound	IC50 (human sEH; [1]) [µM]	IC50 (mouse sEH; Tables 17a and b) [µM]	also measured
CCOC(=O)c1ccc(COC(=O)C2CCCC(NC(=O)NC34CC5CC(CC(C5)C3)C4)C2)cc1 (stereo not drawn) [Compound 942]	0.1 ± 0.01	0.05 ± 0.01	–
CCCCC(C)OC(=O)CCCNC(=O)NC12CC3CC(CC(C3)C1)C2 (stereo not drawn) [Compound 943]	0.13 ± 0.01	0.05 ± 0.01	–
CCCCC(C#N)OC(=O)CCCNC(=O)NC12CC3CC(CC(C3)C1)C2 (stereo not drawn) [Compound 944]	–	0.05 ± 0.01	IC50 (human sEH): 0.2 ± 0.01 µM
O=C(NCCCC(=O)OCc1ccccc1)NC12CC3CC(CC(C3)C1)C2 [Compound 945]	0.19 ± 0.01	0.05 ± 0.01	–
N#CC(OC(=O)CCCNC(=O)NC12CC3CC(CC(C3)C1)C2)c1ccccc1 (stereo not drawn) [Compound 946]	0.15 ± 0.01	0.05 ± 0.01	–
CCOC(=O)c1ccc(C(C#N)OC(=O)CCCNC(=O)NC23CC4CC(CC(C4)C2)C3)cc1 (stereo not drawn) [Compound 947]	0.11 ± 0.01	0.07 ± 0.01	–
CCOC(=O)c1ccc(C(C)OC(=O)CCCNC(=O)NC23CC4CC(CC(C4)C2)C3)cc1 (stereo not drawn) [Compound 948]	0.12 ± 0.01	0.08 ± 0.01	–
CCOC(=O)c1ccc(C(OC(=O)CCCNC(=O)NC23CC4CC(CC(C4)C2)C3)c2ccccc2)cc1 (stereo not drawn) [Compound 949]	0.1 ± 0.01	0.05 ± 0.01	–
O=C(NCCCCCOCCOCCOCc1ccccc1)NC12CC3CC(CC(C3)C1)C2 [Compound 951]	–	–	IC50 (human sEH; [2]): 0.1 ± 0.01 µM; IC50 (mouse sEH; Table 7, established protocols): 0.05 ± 0.01 µM
CCOC(=O)c1ccc(COCCOCCOCCCCCNC(=O)NC23CC4CC(CC(C4)C2)C3)cc1 [Compound 956]	0.1 ± 0.01	0.05 ± 0.01	–
O=C(NCCCCCOCCC(F)(F)F)NC12CC3CC(CC(C3)C1)C2 [Compound 957]	0.23 ± 0.01	0.05 ± 0.01	–
CCCCCOC(=O)CCCn1ccn(C23CC4CC(CC(C4)C2)C3)c1=O [Compound 958]	17 ± 0.01	0.7 ± 0.01	–
O=C(CCCCCCOCCOCCOCc1ccccc1)NC12CC3CC(CC(C3)C1)C2 [Compound 959]	–	–	IC50 (human sEH; [3]): 0.11 ± 0.02 µM; IC50 (mouse sEH; Table 8, established protocols): 0.05 ± 0.01 µM
CCCCCNC(=O)C1CCCC(NC(=O)NC23CC4CC(CC(C4)C2)C3)C1 (stereo not drawn) [Compound 960]	–	–	IC50 (human sEH; [4]): 0.1 ± 0.01 µM; IC50 (mouse sEH; Table 9, established protocols): 0.05 ± 0.01 µM
CCOC(=O)CCCCCCOC1CCC(NC(=O)NC23CC4CC(CC(C4)C2)C3)CC1 (stereo not drawn) [Compound 961]	–	–	IC50 (human sEH; [4]): 0.1 ± 0.01 µM; IC50 (mouse sEH; Table 9, established protocols): 0.05 ± 0.01 µM
O=C(CC1CCCCC1)Nc1ccccc1 [Compound 964]	16 ± 0.01	3.7 ± 0.01	–
COc1ccc(NC(=O)CC2CCCCC2)cc1 [Compound 965]	–	0.15 ± 0.01	IC50 (human sEH): 6 ± 0.01 µM
O=C(CC1CCCCC1)Nc1cccc(Cl)c1 [Compound 966]	2.1 ± 0.01	0.58 ± 0.01	–
O=C(CC12CC3CC(CC(C3)C1)C2)NCCCc1ccccc1 [Compound 967]	0.12 ± 0.01	0.07 ± 0.01	–
O=C(Cc1ccccc1)NC1CCCCC1 [Compound 968]	14 ± 0.01	2.4 ± 0.01	–
O=C(Cc1cccc(Cl)c1)NC1CCCCC1 [Compound 969]	38 ± 0.01	0.56 ± 0.01	–
COc1ccc(CC(=O)NC2CCCCC2)cc1 [Compound 970]	4.8 ± 0.01	1.4 ± 0.01	–
O=C(CCCc1ccccc1)NC1CCCCC1 [Compound 971]	1.4 ± 0.01	0.11 ± 0.01	–

Compound	IC50 (human sEH; [1]) [µM]	IC50 (mouse sEH; Tables 17a and b) [µM]	also measured
CC(C)OCCOCCOCCCCCNC(=O)NC12CC3CC(CC(C3)C1)C2 [Compound 974]	0.1 ± 0.01	0.05 ± 0.01	–
O=C(NCCCCCOCCOCCOCCO)NC12CC3CC(CC(C3)C1)C2 [Compound 975]	–	–	IC50 (human sEH; [2]): 0.1 ± 0.01 µM; IC50 (mouse sEH; Table 7, established protocols): 0.05 ± 0.01 µM
CC(O)c1cccc2c(S(=O)(=O)NCCOCCOCCCCCNC(=O)NC34CC5CC(CC(C5)C3)C4)cccc12 (stereo not drawn) [Compound 976]	0.1 ± 0.01	0.05 ± 0.01	–
CCCCC(CO)NC(=O)NC1CCCCC1 (stereo not drawn) [Compound 977]	0.25 ± 0.01	0.1 ± 0.01	–
CCCCC(CO)NC(=O)Nc1cccc(Cl)c1 (stereo not drawn) [Compound 978]	1.9 ± 0.01	8.4 ± 0.01	–
CCCCC1COC(Nc2cccc(Cl)c2)=N1 (stereo not drawn) [Compound 980]	60 ± 0.01	49 ± 0.01	–
C=CCOC1CCC(NC(=O)NC23CC4CC(CC(C4)C2)C3)CC1 (stereo not drawn) [Compound 982]	–	–	IC50 (human sEH; [4]): 0.1 ± 0.01 µM; IC50 (mouse sEH; Table 9, established protocols): 0.05 ± 0.01 µM
CC(C)=CCOC1CCC(NC(=O)NC23CC4CC(CC(C4)C2)C3)CC1 (stereo not drawn) [Compound 983]	–	–	IC50 (human sEH; [4]): 0.1 ± 0.01 µM; IC50 (mouse sEH; Table 9, established protocols): 0.05 ± 0.01 µM
CC(C)=CCC/C(C)=C/COC1CCC(NC(=O)NC23CC4CC(CC(C4)C2)C3)CC1 (stereo not drawn) [Compound 984]	–	–	IC50 (human sEH; [4]): 0.1 ± 0.01 µM; IC50 (mouse sEH; Table 9, established protocols): 0.05 ± 0.01 µM
O=C(NC1CCC(OCCOCCOCC(F)(F)F)CC1)NC12CC3CC(CC(C3)C1)C2 (stereo not drawn) [Compound 985]	–	–	IC50 (human sEH; [4]): 0.1 ± 0.01 µM; IC50 (mouse sEH; Table 9, established protocols): 0.05 ± 0.01 µM
CC(C)c1cccc2c(S(=O)(=O)NCCCOCCCCCNC(=O)NC34CC5CC(CC(C5)C3)C4)cccc12 [Compound 986]	0.29 ± 0.01	0.05 ± 0.01	–
CCCCCOC(=O)CCCCC(=O)Nc1cccc(Cl)c1 [Compound 987]	5.9 ± 0.01	1.7 ± 0.01	–
CCCCCOC(=O)CCCNC(=O)Cc1cccc(Cl)c1 [Compound 988]	5 ± 0.01	2.9 ± 0.01	–
CCCCCCCCCCCC(=O)NC12CC3CC(CC(C3)C1)C2 [Compound 989]	–	–	IC50 (human sEH; [3]): 5 ± 0.3 µM; IC50 (mouse sEH; Table 8, established protocols): 0.05 ± 0.01 µM
O=C(CC1CCCCC1)NCCCc1ccccc1 [Compound 990]	1.1 ± 0.01	0.73 ± 0.01	–
O=C(CCCCc1ccccc1)NC1CCCCC1 [Compound 992]	1.6 ± 0.01	0.05 ± 0.01	–
O=C(CC1CCCCC1)NCCc1ccccc1 [Compound 993]	4 ± 0.01	2.1 ± 0.01	–
CCCCC(O)CCCCNC(=O)NC12CC3CC(CC(C3)C1)C2 (stereo not drawn) [Compound 994]	0.1 ± 0.01	0.05 ± 0.01	–
CCCCCNC(=O)NC(CO)c1ccccc1 (stereo not drawn) [Compound 995]	22.1 ± 0.01	11 ± 0.01	–
O=C(NCCCCCCCCCCCn1ccnc1)NC12CC3CC(CC(C3)C1)C2 [Compound 997]	63 ± 0.01	2.3 ± 0.01	–
O=C(Nc1ccc2ccccc2c1)NC1CCCCC1 [Compound 998]	3.7 ± 0.01	0.1 ± 0.01	–
CCCCCCCCC(NC(=O)CCCCCCCCCCCNC(=O)NC12CC3CC(CC(C3)C1)C2)C(=O)O (stereo not drawn) [Compound 1001]	0.24 ± 0.01	0.05 ± 0.01	–
